According to PMC7827406, “Structure–Activity Relationship (SAR) Study of Spautin-1 to Entail the Discovery of Novel NEK4 Inhibitors” (International Journal of Molecular Sciences, 2021):
Where two headings read alike, the source gives them in different places.

Assays:
Test in all cases: biochemical
Parameters in all cases: Eurofins KinaseProfiler full panel at Km ATP, residual kinase activity (%) relative to DMSO
[1] = biological target: T1, BMPR2(h) (Homo sapiens, UniProt Q13873)
T1 sequence (Q13873 1-1038): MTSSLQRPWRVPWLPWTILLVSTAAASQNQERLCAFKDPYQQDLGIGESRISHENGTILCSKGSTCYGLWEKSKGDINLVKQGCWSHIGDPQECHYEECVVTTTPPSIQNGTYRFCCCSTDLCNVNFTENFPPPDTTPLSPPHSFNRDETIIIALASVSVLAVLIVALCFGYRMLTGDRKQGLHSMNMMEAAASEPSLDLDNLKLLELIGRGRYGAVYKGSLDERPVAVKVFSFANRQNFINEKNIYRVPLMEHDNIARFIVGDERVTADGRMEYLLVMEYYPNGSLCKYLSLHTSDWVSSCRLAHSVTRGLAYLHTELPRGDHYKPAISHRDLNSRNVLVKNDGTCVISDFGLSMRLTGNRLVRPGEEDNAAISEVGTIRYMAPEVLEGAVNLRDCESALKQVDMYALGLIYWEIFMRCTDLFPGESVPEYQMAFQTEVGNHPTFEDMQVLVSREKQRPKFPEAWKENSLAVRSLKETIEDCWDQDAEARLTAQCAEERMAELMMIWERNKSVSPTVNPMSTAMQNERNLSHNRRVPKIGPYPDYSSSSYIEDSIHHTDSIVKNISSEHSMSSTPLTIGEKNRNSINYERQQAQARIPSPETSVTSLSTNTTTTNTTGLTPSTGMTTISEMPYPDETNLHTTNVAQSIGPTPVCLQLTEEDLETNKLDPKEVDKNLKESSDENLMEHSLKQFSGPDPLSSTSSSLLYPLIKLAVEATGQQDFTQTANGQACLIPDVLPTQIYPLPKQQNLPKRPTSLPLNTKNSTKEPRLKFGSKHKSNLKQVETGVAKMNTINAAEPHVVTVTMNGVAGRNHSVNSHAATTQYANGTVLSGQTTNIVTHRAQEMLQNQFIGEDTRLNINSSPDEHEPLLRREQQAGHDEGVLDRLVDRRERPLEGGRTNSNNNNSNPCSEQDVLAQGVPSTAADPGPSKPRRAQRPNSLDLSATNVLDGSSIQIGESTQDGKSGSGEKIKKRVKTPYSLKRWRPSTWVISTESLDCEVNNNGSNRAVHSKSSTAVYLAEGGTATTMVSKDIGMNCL
Outline: (§1)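 Two 10 µM single-concentration screens were run: a competition-binding screen, in which DNA-tagged kinase bound to immobilized ligands was quantified by qPCR, and a radiometric activity panel at Km ATP. Each is expressed as residual kinase activity (%).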

[2] = biological target: CDK9/cyclin T1(h) (Homo sapiens, UniProt P50750)
CDK9/cyclin T1(h), sequence (P50750 whole entry): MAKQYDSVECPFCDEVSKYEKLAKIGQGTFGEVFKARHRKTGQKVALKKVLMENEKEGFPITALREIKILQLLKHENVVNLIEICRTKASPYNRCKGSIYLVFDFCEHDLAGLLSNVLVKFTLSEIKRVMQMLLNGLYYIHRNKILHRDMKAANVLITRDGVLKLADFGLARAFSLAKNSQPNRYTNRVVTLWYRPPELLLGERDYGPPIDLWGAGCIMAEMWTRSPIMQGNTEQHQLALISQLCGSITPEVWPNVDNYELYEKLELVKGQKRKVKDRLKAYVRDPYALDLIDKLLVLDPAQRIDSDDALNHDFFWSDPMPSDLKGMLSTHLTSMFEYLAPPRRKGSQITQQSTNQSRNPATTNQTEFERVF
CDK9/cyclin T1(h), sequence (O60563 whole entry partner): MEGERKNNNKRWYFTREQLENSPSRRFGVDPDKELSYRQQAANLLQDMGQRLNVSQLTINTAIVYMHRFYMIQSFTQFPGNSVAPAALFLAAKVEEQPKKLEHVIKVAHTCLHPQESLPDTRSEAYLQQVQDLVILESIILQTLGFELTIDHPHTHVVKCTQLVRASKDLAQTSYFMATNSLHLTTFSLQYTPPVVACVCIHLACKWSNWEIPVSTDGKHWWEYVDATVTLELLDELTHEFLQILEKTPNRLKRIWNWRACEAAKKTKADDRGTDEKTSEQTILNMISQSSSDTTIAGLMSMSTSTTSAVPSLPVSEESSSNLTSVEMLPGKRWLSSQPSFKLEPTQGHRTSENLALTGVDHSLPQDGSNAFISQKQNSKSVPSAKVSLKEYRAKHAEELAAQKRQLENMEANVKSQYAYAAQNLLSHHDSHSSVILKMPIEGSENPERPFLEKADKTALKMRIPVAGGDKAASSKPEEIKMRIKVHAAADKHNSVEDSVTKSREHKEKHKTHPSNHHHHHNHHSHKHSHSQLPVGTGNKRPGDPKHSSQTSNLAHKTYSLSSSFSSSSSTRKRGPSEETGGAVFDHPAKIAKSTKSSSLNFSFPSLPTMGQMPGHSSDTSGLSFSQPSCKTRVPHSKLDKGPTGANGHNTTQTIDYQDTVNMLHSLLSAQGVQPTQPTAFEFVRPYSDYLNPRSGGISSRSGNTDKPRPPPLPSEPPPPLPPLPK
Outline: as §1

[3] = biological target: T2, ChaK1(h) (Homo sapiens, UniProt Q96QT4)
T2 construct: gene TRPM7
Outline: as §1

[4] = biological target: DAPK1(h) (Homo sapiens, UniProt P53355)
DAPK1(h), sequence (P53355 whole entry): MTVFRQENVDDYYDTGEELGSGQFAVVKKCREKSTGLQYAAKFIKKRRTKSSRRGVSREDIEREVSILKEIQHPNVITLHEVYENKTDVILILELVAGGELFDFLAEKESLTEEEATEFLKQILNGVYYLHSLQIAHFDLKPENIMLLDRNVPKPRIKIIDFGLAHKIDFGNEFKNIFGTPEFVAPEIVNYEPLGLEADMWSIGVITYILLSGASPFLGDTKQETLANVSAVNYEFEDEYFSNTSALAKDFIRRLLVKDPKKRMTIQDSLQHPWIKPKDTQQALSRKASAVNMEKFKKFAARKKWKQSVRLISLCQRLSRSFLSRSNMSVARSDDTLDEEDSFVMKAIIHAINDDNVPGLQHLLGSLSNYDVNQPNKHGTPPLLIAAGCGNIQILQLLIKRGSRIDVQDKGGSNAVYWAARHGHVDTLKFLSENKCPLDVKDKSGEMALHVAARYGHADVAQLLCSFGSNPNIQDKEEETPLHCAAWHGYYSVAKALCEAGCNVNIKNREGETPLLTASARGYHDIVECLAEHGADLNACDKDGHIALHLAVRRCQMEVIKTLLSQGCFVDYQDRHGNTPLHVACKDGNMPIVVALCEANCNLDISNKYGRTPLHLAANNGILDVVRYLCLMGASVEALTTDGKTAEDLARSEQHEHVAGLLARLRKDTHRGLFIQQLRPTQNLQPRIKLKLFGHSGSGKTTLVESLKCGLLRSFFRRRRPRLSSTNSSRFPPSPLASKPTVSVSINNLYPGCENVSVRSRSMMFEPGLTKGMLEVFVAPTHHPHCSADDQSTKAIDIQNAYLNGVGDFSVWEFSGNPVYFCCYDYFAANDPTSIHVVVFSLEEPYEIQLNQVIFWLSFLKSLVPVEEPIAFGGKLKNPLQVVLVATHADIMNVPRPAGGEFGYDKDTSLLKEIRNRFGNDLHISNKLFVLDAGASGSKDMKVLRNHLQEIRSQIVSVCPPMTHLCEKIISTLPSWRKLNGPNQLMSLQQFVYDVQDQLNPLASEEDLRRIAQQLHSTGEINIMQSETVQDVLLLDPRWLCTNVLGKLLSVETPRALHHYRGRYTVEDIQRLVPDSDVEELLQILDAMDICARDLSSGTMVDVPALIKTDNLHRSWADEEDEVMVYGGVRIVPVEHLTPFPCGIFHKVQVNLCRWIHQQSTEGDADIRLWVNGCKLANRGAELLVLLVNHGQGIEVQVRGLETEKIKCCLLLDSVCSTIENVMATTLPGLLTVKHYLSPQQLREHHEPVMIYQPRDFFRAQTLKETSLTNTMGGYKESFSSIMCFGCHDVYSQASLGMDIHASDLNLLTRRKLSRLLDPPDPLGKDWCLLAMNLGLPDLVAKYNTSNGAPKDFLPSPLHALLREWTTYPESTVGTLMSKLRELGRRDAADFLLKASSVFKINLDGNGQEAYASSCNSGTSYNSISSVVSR
Outline: as §1

[5] = biological target: MARK3(h) (Homo sapiens, UniProt P27448)
Outline: as §1

[6] = biological target: T3, MLK3(h) (Homo sapiens, UniProt Q16584)
T3 construct: gene MAP3K11
T3 sequence (Q16584 whole entry): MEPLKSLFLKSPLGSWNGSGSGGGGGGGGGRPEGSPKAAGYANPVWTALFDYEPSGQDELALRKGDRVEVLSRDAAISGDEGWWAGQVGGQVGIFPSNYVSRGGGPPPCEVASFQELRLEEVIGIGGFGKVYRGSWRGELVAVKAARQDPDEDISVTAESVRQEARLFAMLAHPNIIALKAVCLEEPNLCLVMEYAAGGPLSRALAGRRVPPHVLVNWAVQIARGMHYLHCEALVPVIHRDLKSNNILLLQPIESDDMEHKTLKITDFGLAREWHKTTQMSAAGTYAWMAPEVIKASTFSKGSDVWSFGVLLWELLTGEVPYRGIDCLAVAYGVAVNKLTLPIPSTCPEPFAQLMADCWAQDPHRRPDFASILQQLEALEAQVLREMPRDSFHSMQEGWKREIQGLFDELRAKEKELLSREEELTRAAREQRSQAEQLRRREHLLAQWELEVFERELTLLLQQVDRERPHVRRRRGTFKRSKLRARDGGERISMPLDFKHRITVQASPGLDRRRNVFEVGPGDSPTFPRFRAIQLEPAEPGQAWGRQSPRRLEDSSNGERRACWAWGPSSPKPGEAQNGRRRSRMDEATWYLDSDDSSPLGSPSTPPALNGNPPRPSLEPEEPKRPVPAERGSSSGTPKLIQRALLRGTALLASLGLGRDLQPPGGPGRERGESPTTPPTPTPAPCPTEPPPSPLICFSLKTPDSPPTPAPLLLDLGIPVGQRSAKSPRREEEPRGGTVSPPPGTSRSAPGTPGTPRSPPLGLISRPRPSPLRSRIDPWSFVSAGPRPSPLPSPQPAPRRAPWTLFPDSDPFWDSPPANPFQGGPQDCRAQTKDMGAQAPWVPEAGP
Outline: as §1

[7] = biological target: T4, NIM1(h) (Homo sapiens, UniProt Q8IY84)
T4 construct: gene NIM1K
T4 sequence (Q8IY84 whole entry): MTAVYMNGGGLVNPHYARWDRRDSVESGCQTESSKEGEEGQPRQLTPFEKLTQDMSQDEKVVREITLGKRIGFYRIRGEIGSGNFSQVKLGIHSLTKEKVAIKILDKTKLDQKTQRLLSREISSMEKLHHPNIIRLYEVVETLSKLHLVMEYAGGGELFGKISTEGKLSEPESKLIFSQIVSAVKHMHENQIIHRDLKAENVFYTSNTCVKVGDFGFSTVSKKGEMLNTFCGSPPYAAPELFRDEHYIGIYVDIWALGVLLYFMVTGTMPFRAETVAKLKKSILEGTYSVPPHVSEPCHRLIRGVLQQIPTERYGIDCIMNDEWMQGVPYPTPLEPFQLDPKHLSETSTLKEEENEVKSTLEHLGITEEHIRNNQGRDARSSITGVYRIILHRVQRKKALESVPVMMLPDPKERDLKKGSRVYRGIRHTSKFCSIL
Outline: as §1

[8] = biological target: PAK1(h) (Homo sapiens, UniProt Q13153)
PAK1(h), sequence (Q13153 whole entry): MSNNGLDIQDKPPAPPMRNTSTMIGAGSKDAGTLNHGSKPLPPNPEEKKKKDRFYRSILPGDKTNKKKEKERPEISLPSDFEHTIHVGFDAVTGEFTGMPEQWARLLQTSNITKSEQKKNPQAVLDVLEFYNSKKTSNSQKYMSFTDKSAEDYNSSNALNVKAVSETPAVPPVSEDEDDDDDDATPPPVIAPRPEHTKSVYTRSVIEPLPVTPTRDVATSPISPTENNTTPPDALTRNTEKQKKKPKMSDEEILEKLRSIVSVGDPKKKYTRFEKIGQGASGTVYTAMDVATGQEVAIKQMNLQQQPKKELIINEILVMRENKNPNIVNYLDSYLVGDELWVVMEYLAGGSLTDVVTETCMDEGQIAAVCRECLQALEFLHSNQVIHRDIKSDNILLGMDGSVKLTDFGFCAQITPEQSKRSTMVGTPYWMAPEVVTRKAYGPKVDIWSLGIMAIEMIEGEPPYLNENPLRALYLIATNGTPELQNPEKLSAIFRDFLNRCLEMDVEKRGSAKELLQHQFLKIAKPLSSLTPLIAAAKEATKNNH
Outline: as §1

[9] = biological target: PAK4(h) (Homo sapiens, UniProt O96013)
PAK4(h), sequence (O96013 whole entry): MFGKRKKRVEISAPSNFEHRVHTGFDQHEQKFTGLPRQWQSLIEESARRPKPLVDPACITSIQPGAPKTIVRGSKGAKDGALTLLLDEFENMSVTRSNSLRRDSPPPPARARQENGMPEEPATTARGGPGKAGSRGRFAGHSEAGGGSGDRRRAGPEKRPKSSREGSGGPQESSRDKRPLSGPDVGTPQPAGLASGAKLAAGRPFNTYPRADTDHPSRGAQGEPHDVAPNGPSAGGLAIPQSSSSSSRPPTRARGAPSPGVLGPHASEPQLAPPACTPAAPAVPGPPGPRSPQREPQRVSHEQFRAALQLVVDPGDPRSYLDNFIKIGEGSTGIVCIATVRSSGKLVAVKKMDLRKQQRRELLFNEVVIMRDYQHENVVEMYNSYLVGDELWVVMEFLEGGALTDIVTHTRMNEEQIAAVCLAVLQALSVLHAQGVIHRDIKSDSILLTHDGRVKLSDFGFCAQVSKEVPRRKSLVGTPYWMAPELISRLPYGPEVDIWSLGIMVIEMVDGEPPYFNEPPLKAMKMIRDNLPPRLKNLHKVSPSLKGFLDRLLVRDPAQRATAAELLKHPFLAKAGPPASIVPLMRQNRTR
Outline: as §1

[10] = read-out: Residual activity (%) Spautin-1 5aa
[11] = read-out: Residual activity (%) 5as
[12] = read-out: Residual activity (%) 5at
[13] = read-out: Residual activity (%) 5ay

Fc1ccc(CNc2ncnc3ccc(F)cc23)cc1 [5aa, 6-Fluoro-N-(4-fluorobenzyl)-4-Quinazolinamine]
remaining activity at 10 µM [1, 10]: 115% | remaining activity at 10 µM [2, 10]: 104% | remaining activity at 10 µM [3, 10]: 86% | remaining activity at 10 µM [4, 10]: 102% | remaining activity at 10 µM [5, 10]: 95% | remaining activity at 10 µM [6, 10]: 99% | remaining activity at 10 µM [7, 10]: 108% | remaining activity at 10 µM [8, 10]: 94% | remaining activity at 10 µM [9, 10]: 90%

Fc1ccc(CCNc2ncnc3ccc(F)cc23)cc1 [5as, 6-Fluoro-N-[2-(4-Fluorophenyl)Ethyl]-4-Quinazolinamine]
remaining activity at 10 µM [1, 11]: 108% | remaining activity at 10 µM [2, 11]: 93% | remaining activity at 10 µM [3, 11]: 81% | remaining activity at 10 µM [4, 11]: 90% | remaining activity at 10 µM [5, 11]: 87% | remaining activity at 10 µM [6, 11]: 99% | remaining activity at 10 µM [7, 11]: 113% | remaining activity at 10 µM [8, 11]: 81% | remaining activity at 10 µM [9, 11]: 92%

Fc1ccc2ncnc(NCCc3ccc(Cl)cc3)c2c1 [5at, N-[2-(4-Chlorophenyl)Ethyl]-6-Fluoro-4-Quinazolinamine]
remaining activity at 10 µM [1, 12]: 103% | remaining activity at 10 µM [2, 12]: 86% | remaining activity at 10 µM [3, 12]: 82% | remaining activity at 10 µM [4, 12]: 89% | remaining activity at 10 µM [5, 12]: 85% | remaining activity at 10 µM [6, 12]: 114% | remaining activity at 10 µM [7, 12]: 110% | remaining activity at 10 µM [8, 12]: 90% | remaining activity at 10 µM [9, 12]: 90%

COc1ccc2ncnc(Nc3cccc(F)c3)c2c1 [5ay, N-(3-Fluorophenyl)-6-Methoxy-4-Quinazolinamine]
remaining activity at 10 µM [1, 13]: 99% | remaining activity at 10 µM [2, 13]: 100% | remaining activity at 10 µM [3, 13]: 77% | remaining activity at 10 µM [4, 13]: 95% | remaining activity at 10 µM [5, 13]: 89% | remaining activity at 10 µM [6, 13]: 97% | remaining activity at 10 µM [7, 13]: 97% | remaining activity at 10 µM [8, 13]: 97% | remaining activity at 10 µM [9, 13]: 83%
